Patent publication US20240335548A1, “MACROMOLECULES” (Starpharma Pty Ltd, priority 2011, published 2024)
Where two headings read alike, the source gives them in different places.

Columns and labels:
[1] = free cabazitaxel, triphasic PK model; cited from earlier work
[2] = system: MDA-MB-231 tumour xenografts; experiment: MDA-MB-231 mouse xenograft breast cancer model, SPL9048 study
Procedure: (§3) References to amounts dosed in mg/kg for the dendrimeric compounds are to the amounts of cabazitaxel that may theoretically be released by the dendrimers.
(§4) Each of the dendrimers was pre-weighed in glass vials and stored at 20° C. until use, and dissolved in saline immediately prior to dosing. Cabazitaxel was purchased from a commercial supplier.
(§5) Female Balb/c nude mice (age 7 weeks) were inoculated subcutaneously on the flank with 3.5×10^6 MDA-MB-231 cells in PBS:Matrigel (1:1). Mice were weighed and tumours measured twice weekly using electronic callipers. Tumour volume (mm^3) was calculated as length (mm)/2×width (mm)^2.
Mice received a small dish containing a food supplement (mixed with food dust) daily. The experiment was ended on day 113 or earlier if an ethical endpoint was met.

[3] = system: MDA-MB-231 tumour xenografts; experiment: MDA-MB-231 mouse xenograft breast cancer model, SPL8996, SPL9005 and SPL9006 study
Procedure: as §3, §4, §5
Mice received a small dish containing a food supplement (mixed with food dust) daily. The experiment was ended on day 150 or earlier if an ethical endpoint was met.

[4] = Water solubility study on drug loaded dendrimers; assay type: physicochemical; settings: for Water solubility of dendrimer: deionised water, until full dissolution; for Equivalent drug solubility on dendrimer: water solubility x % drug loading/100
Procedure: Protocol: To 30 mg of dendrimer (freeze-dried from water) was added 100 μL of deionised water. After mixing for 10 minutes, additional aliquots of water (10-30 μL per addition) were added with vortexing and incubation for 10 mins until full dissolution was obtained. This amount is represented in Table 1 as the water solubility of the dendrimer. The equivalent drug solubility is determined by multiplying the % drug loading/100 and is represented in Table 1 (column 3) as Equivalent drug solubility on dendrimer. Finally, the fold increase is obtained by dividing the Equivalent drug solubility on dendrimer by the solubility of the drug and is represented in Table 1 (column 4).

[5] = Plasma stability study: docetaxel release in mouse plasma; assay type: in vitro ADME; settings: 37° C.
Procedure: Protocol: To 0.5 mL of mouse plasma was added 0.1 mL of dendrimer solution (2 mg/mL, drug equivalent in saline). The mixtures were vortexed (30 s) then incubated at 37° C. At various timepoints (0.5, 2.5, 4.5, 22 hours) 0.1 mL aliquots were removed and added to 0.2 mL ACN. The resulting mixtures were vortexed (30 s), centrifuged (10 min, 4° C.) filtered and analysed by HPLC (C8, 3.9×150 mm, 5 μm, wavelength=243 nm, 10 μL injections, gradient: 40-80% ACN/H2O (1-7 min), 80% ACN (7-9 min), 80-40% ACN (9-11 min), 40% ACN (11-15 min), 10 mM ammonium formate, pH 7.40) which when compared against a standard (2 mg//mL) provided the concentration of free docetaxel in the sample.

[6] = system: A2058 (Melanoma); experiment: Cell growth inhibition SRB assay; assay type: cell-based
Procedure: (§1) All solutions were prepared in saline (except docetaxel which was made in ethanol). All solutions were stored at −20° C. All values were based on the equivalent drug loading.

[7] = system: A549 (Lung); experiment: Cell growth inhibition SRB assay; assay type: cell-based
Procedure: as §1

[8] = system: DU145 (Prostate); experiment: Cell growth inhibition SRB assay; assay type: cell-based
Procedure: as §1

[9] = system: ES2 (Ovarian); experiment: Cell growth inhibition SRB assay; assay type: cell-based
Procedure: as §1

[10] = system: H460 (Lung); experiment: Cell growth inhibition SRB assay; assay type: cell-based
Procedure: as §1

[11] = system: HCT116 (Colon); experiment: Cell growth inhibition SRB assay; assay type: cell-based
Procedure: as §1

[12] = system: HT29 (Colon); experiment: Cell growth inhibition SRB assay; assay type: cell-based
Procedure: as §1

[13] = system: MCAS (Ovarian); experiment: Cell growth inhibition SRB assay; assay type: cell-based
Procedure: as §1

[14] = system: MDA-MB-231 (Breast); experiment: Cell growth inhibition SRB assay; assay type: cell-based
Procedure: as §1

[15] = system: PC-3 (Prostate); experiment: Cell growth inhibition SRB assay; assay type: cell-based
Procedure: as §1

[16] = day 16, one day after final dose
Procedure: The 20 mice were randomised into 5 groups of four mice (mean tumour volume ˜90 mm^3). Animals were eye bled in the morning for baseline blood cell counts and then drug dosing commenced later that day (day 1). […] A second eye bleed was performed on day 11 (Table 7 A-C). Mice were killed one day following the final drug dose (day 16).

[17] = Toxicity studies in rats (neutropenia, hematology, microscopic changes); settings: 2.5 mg/kg
Excerpt: References to amounts dosed in mg/kg for the dendrimeric compound are to the amounts of cabazitaxel that may theoretically be released by the dendrimer.

[18] = system: MDA-MB-231 tumours; experiment: Xenograft MDA-MB-231 efficacy study; assay type: in vivo, female Balb/c nude mice
[19] = Pharmacokinetic analysis, plasma half-life after IV administration; settings: tritium labelled, IV administration into rats
Procedure: The plasma half-lives of tritium labelled docetaxel and the construct from Experiment 8 (c) (prepared using tritium labelled docetaxel) after IV administration into rats were determined (Kaminskas, L. M., Boyd, B. J., Karellas, P., Krippner, G. Y., Lessene, R., Kelly, B and Porter, C. J. H. “The Impact of Molecular Weight and PEG Chain Length on the Systemic Pharmacokinetics of PEGylated Poly-L-Lysine Dendrimers” Molecular Pharm. 2008, 5, 449-463).

[20] = system: A2780; experiment: IC50 using the MTT assay; assay type: cell-based; settings: 72 hours
Procedure: (§2) The IC50 using the MTT assay [Wilson, Anne P. (2000). “Chapter 7: Cytotoxicity and viability”. In Masters, John R. W. Animal Cell Culture: A Practical Approach. Vol. 1 (3rd ed.). Oxford: Oxford University Press] was determined against various cancer cell lines after 72 hours.

[21] = system: A549; experiment: IC50 using the MTT assay; assay type: cell-based; settings: 72 hours
Procedure: as §2

[22] = system: DU-145; experiment: IC50 using the MTT assay; assay type: cell-based; settings: 72 hours
Procedure: as §2

[23] = system: H460; experiment: IC50 using the MTT assay; assay type: cell-based; settings: 72 hours
Procedure: as §2

[24] = system: HCT-116; experiment: IC50 using the MTT assay; assay type: cell-based; settings: 72 hours
Procedure: as §2

[25] = system: HT-29; experiment: IC50 using the MTT assay; assay type: cell-based; settings: 72 hours
Procedure: as §2

[26] = system: MCF-7; experiment: IC50 using the MTT assay; assay type: cell-based; settings: 72 hours
Procedure: as §2

[27] = system: PC-3; experiment: IC50 using the MTT assay; assay type: cell-based; settings: 72 hours
Procedure: as §2

[28] = Particle sizing using Dynamic Light Scattering; assay type: physicochemical
[29] = Day 1, i.v. day 1, 8, 15, docetaxel 15 mg/kg, Exp 3 (b) 20 mg/kg, Exp 8 (c) […] mg/kg

## CO[C@H]1C(=O)[C@]2(C)[C@@H](OC)C[C@H]3OC[C@@]3(OC(C)=O)[C@H]2[C@H](OC(=O)c2ccccc2)[C@]2(O)C[C@H](OC(=O)[C@H](O)[C@@H](NC(=O)OC(C)(C)C)c3ccccc3)C(C)=C1C2(C)C [cabazitaxel, reference compound]
[1]
  initial-phase half-life: 4 min
  intermediate-phase half-life: 2 h
  terminal-phase half-life: 95 h
[2]; cabazitaxel 9 mg/kg
  tumours reaching an ethical tumour volume endpoint by day 98: 9 of 10
[2]; cabazitaxel 9 mg/kg, days 1, 8 and 15
  tumour regrowth evident by day: ≤ 43 days
[3]; cabazitaxel 10 mg/kg, days 1, 8 and 22
  resumption of tumour growth by day: ≤ 60 days

## BHALys[Lys]32[α-4-HSBA-Cp-DTX]32[ε-PEG1100]32 [Example 4 (c)]
[4]
  Water solubility of dendrimer: 109 mg/mL
  Equivalent drug solubility on dendrimer: 22 mg/mL
[5]; 0.5 hours
  Docetaxel release in plasma: 1.5 percentage of total docetaxel
[5]; 2.5 hours
  Docetaxel release in plasma: 10 percentage of total docetaxel
[5]; 22 hours
  Docetaxel release in plasma: 17.5 percentage of total docetaxel
[6]; A2058, 72 hours, equivalent drug loading, average of duplicate
  GI50: 8 nM
[7]; A549, 72 hours, equivalent drug loading, average of duplicate
  GI50: 8.5 nM
[8]; DU145, 72 hours, equivalent drug loading, average of duplicate
  GI50: 12 nM
[9]; ES2, 72 hours, equivalent drug loading, average of duplicate
  GI50: 8.6 nM
[10]; H460, 72 hours, equivalent drug loading, average of duplicate
  GI50: 11 nM
[11]; HCT116, 72 hours, equivalent drug loading, average of duplicate
  GI50: 9 nM
[12]; HT29, 72 hours, equivalent drug loading, average of duplicate
  GI50: 9.5 nM
[13]; MCAS, 72 hours, equivalent drug loading, average of duplicate
  GI50: 20 nM
[14]; MDA-MB-231, 72 hours, equivalent drug loading, average of duplicate
  GI50: 6.5 nM
[15]; PC-3, 72 hours, equivalent drug loading, average of duplicate
  GI50: 21.5 nM
[16]
  Mean Tumour Weights (g) (sd): 0.079 g

## BHALys[Lys]32[α-DGA-Cabazitaxel]32†[ε-PEG˜2100]32‡ [SPL9048]
[2]; FIG. 1, i.v. days 1, 8 and 15, SPL-9048 9 and 10 mg/kg
  antitumour efficacy (tumour response): complete tumour regression
[2]; FIG. 2, body weight
  tolerability: overall well tolerated
[2]; both doses (9 and 10 mg/kg)
  survival compared with cabazitaxel: significantly extended survival beyond that of cabazitaxel
[17]
  toxicity compared to Jevtana®/cabazitaxel: Reduced toxicity

## BHALys[Lys]32[α-DGA-DTX]32[ε-PEG1100]32 [Example 3 (b)]
[4]
  Water solubility of dendrimer: 89 mg/mL
  Equivalent drug solubility on dendrimer: 23 mg/mL
[5]; 0.5 hours
  Docetaxel release in plasma: 8.5 percentage of total docetaxel
[5]; 2.5 hours
  Docetaxel release in plasma: 32.5 percentage of total docetaxel
[5]; 22 hours
  Docetaxel release in plasma: 73 percentage of total docetaxel
[6]
  GI50: 2 nM
[7]
  GI50: 3.5 nM
[8]
  GI50: 4 nM
[9]
  GI50: 4 nM
[10]
  GI50: 8 nM
[11]
  GI50: 1 nM
[12]
  GI50: 2 nM
[13]
  GI50: 7 nM
[14]
  GI50: 0.5 nM
[15]
  GI50: 4.5 nM
[18]; [29]
  Mean tumour Volumne mm^3 (sd): 111.74 (6.65), mm^3
[18]; Day 9, same doses
  Mean tumour Volumne mm^3 (sd): 84.02 (6.33), mm^3
[18]; Day 19, same doses
  Mean tumour Volumne mm^3 (sd): 28.26 (1.91), mm^3
[18]; Day 29, same doses
  Mean tumour Volumne mm^3 (sd): 10.46 (0.5), mm^3
[18]; Day 40, same doses
  Mean tumour Volumne mm^3 (sd): 5.92 (1.31), mm^3
[18]; Day 61, same doses
  Mean tumour Volumne mm^3 (sd): 4 (0), mm^3
[18]; Day 81, same doses
  Mean tumour Volumne mm^3 (sd): 0.5 (0), mm^3
[18]; Day 100, same doses
  Mean tumour Volumne mm^3 (sd): 0.5 (0), mm^3
[18]; Day 120, same doses
  Mean tumour Volumne mm^3 (sd): 0.37 (0.12), mm^3
[16]
  Mean Tumour Weights (g) (sd): 0.020 g

## BHALys[Lys]32[α-TDA-DTX]32[ε-PEG1100]32 [Example 8 (c)]
[4]
  Water solubility of dendrimer: 131 mg/mL
  Equivalent drug solubility on dendrimer: 41 mg/mL
[5]; 0.5 hours
  Docetaxel release in plasma: 4.5 percentage of total docetaxel
[5]; 2.5 hours
  Docetaxel release in plasma: 13.5 percentage of total docetaxel
[5]; 22 hours
  Docetaxel release in plasma: 43 percentage of total docetaxel
[9]
  GI50: 12 nM
[10]
  GI50: 7 nM
[15]
  GI50: 9.5 nM
[18]; [29]
  Mean tumour Volumne mm^3 (sd): 111.73 (6.41), mm^3
[18]; Day 9, same doses
  Mean tumour Volumne mm^3 (sd): 108.86 (9.31), mm^3
[18]; Day 19, same doses
  Mean tumour Volumne mm^3 (sd): 30.59 (1.64), mm^3
[18]; Day 29, same doses
  Mean tumour Volumne mm^3 (sd): 11.58 (1.2), mm^3
[18]; Day 40, same doses
  Mean tumour Volumne mm^3 (sd): 5.75 (0.92), mm^3
[18]; Day 61, same doses
  Mean tumour Volumne mm^3 (sd): 4 (0), mm^3
[18]; Day 81, same doses
  Mean tumour Volumne mm^3 (sd): 0.5 (0), mm^3
[18]; Day 100, same doses
  Mean tumour Volumne mm^3 (sd): 1.67 (0.74), mm^3
[18]; Day 120, same doses
  Mean tumour Volumne mm^3 (sd): 16.2 (10.24), mm^3
[16]
  Mean Tumour Weights (g) (sd): 0.033 g
[19]
  plasma half-life: approximately 30 hour

## BHALys[Lys]32[α-TDA-DTX]32[ε-PolyPEG2000]32 [Example 19]
[4]
  Water solubility of dendrimer: 477 mg/mL
  Equivalent drug solubility on dendrimer: 109 mg/mL
[4]; equivalent drug solubility divided by solubility of the drug
  Fold increase in drug solubility: 21900
[20]
  IC50: 6.3 nM
[21]
  IC50: 7.7 nM
[22]
  IC50: 15.5 nM
[23]
  IC50: 23.7 nM
[24]
  IC50: 6.5 nM
[25]
  IC50: 5.9 nM
[26]
  IC50: 6.3 nM
[27]
  IC50: 7.4 nM
[28]
  particle size, range of concentration dependent averages: 10.9-15.5 nm

## N3-PEG24-CO(NPN)[Lys]32[α-TDA-Cabazitaxel]32†[ε-PEG˜1100]32‡ [SPL8996]
[3]; 28 mg/kg
  tumour regrowth at the conclusion of the study on day 150: one tumour in the SPL-8996 group which began to regrow by day 77
